Data: patent US20170354721A1, “WOUND HEALING COMPOUND” (priority 2016, published 2017)

Columns and labels:
[1] = test system: all ranges of bacterial infection; settings: in water or saline; cited from earlier work
[2] = test system: ancef sensitive organisms; settings: in the lab; cited from earlier work
[3] = test system: ancef sensitive organisms; test: Minimum bactericidal concentration (MBC) of ancef; format: cell-based
Description: In an operating room setting, the vancomycin is reconstituted at room temperature (˜25° C.). […] To insure the Minimal Inhibitory Concentration (MIC) for vancomycin is exceeded, the total amount of vancomycin added to the mixture ranges from 1 mg to 5000 mg with the preferred amount being 500 mg for a 10 ml syringe, 750 mg for a 15 ml syringe, and 1000 for a 20 ml syringe. People having skill in the art will recognize that the concentrations of vancomycin can be adjusted for different sized syringes. The reconstituted vancomycin is added to the thrombin-flowable agent mixture to form a wound healing compound (“compound”). The compound is applied directly to the target wound. The Minimum Inhibitory Concentration (MIC) is defined as the lowest concentration of antimicrobial that will inhibit the visible growth of a microorganism after an overnight incubation. Related to this is the minimum bactericidal concentration (MBC), which is the lowest concentration of antimicrobial agent that will prevent the growth of an organism after subculture on to antibiotic free media.
Depending on the infection agent, other antibiotics may be added to the mixture to form the wound healing compound. In the lab, ancef sensitive organisms are inhibited at an MIC ranging from 1-4 mcg/ml. However, ancef is bactericidal a four times the MIC. […]

SMILES | concentration at which most effective if all ranges of bacterial infection are to be inhibited [1] | MIC [2] | preferred concentration (the MBC), bactericidal at four times the MIC [3]
CN[C@H](CC(C)C)C(=O)N[C@H]1C(=O)N[C@@H](CC(N)=O)C(=O)N[C@H]2C(=O)N[C@H]3C(=O)N[C@H](C(=O)N[C@H](C(=O)O)c4cc(O)cc(O)c4-c4cc3ccc4O)[C@H](O)c3ccc(c(Cl)c3)Oc3cc2cc(c3O[C@@H]2O[C@H](CO)[C@@H](O)[C@H](O)[C@H]2O[C@H]2C[C@](C)(N)[C@H](O)[C@H](C)O2)Oc2ccc(cc2Cl)[C@H]1O [Vancomycin, vancomycin] | ≥ 16 µg/mL | – | –
Cc1nnc(SCC2=C(C(=O)O)N3C(=O)[C@@H](NC(=O)Cn4cnnn4)[C@H]3SC2)s1 [ancef] | – | 1 to 4 mg/L | at least 16 mcg/ml
